According to patent US9481871B2, “Nucleic acid encoding a polpeptide having aminotransferase activity, vectors and host cells comprising the nucleic acid” (KANEKA CORPORATION, priority 2010, dated 2016):
Like-named read-outs stand apart in the source and are kept apart here.

Legend:
[1] = tested on: TAT; assay type: biochemical, Arthrobacter sp. KNK04-25
[2] = tested on: TAT; test: Specificity 2 to amino group donor: typical substrates of ω-amino acid transaminase; assay type: biochemical, Arthrobacter sp. KNK04-25; details: amino group donor 14 mM, 2-ketoglutaric acid 14 mM; for activity of the polypeptide for amino group donor (in words): pH 7.0; for Relative activity: pH 7.0, 30° C., 60 minutes, (S)-1-phenethylamine = 100
Experimental: (§1) Each reagent was added to the enzyme solution (100 μL each) so that the final concentrations were as specified in the following composition of the substrate solution. The volume of each reaction solution was adjusted to 400 μl with 0.1 M potassium phosphate buffer (pH 7.0). After 60 minutes of reaction at 30° C., 20 μL of 3N hydrochloric acid was added to stop the reaction. Next, 80 μL of a 0.2 M aqueous sodium carbonate solution and 200 μL of an acetone solution of 3.3 mg/mL Dabsyl chloride were each added to 20 μL of the thus obtained reaction solution, followed by 10 minutes of reaction at 70° C. Acetic acid (20 μL) was added to 50 μL of the reaction solution and then the solution was stirred. The resultant was analyzed by high performance liquid chromatography under the following conditions and thus the quantity of dabsylated glutamic acid was determined. In addition, the activity of an enzyme used in this assay was adjusted so that the amount of glutamic acid generated was 2.8 mM or less.
(§2) [Composition of Substrate Solution]
[High Performance Liquid Chromatography Analysis Conditions] • Column: YMC-Pack Pro C18 RS (YMC) • Eluent: acetonitrile/45 mM acetate buffer (pH 4.1)=35/65 (volume ratio) • Flow rate: 0.9 mL/minute • Detection: 254 nm • Column temperature: 30° C.

[3] = tested on: TAT; test: Specificity to amino group donor (dabsylated glutamic acid, HPLC); assay type: biochemical, Arthrobacter sp. KNK04-25; details: amino group donor 14 mM, 2-ketoglutaric acid 14 mM; for activity of TAT for amino group donor (in words): pH 7.0; for Relative activity: pH 7.0, 30° C., 60 minutes, benzylamine = 100
Experimental: The substrate specificity of TAT to amino group donors was examined using the cell-free extracts obtained in Example 5.
as §1, with “solution (100 μL, each) so” for “solution (100 μL each) so”, “C., 20 μL, of 3N” for “C., 20 μL of 3N”, “Next, 80 μL, of a” for “Next, 80 μL of a”, “and 200 μL, of an” for “and 200 μL of an”, “to 20 μL, of the” for “to 20 μL of the”, “to 50 μL, of the” for “to 50 μL of the”
as §2
[High Performance Liquid Chromatography Analysis Conditions] • Column: Cosmosil 5C8-MS (NACALAI TESQUE, INC.) • Eluent: distilled water 2000 mL/acetonitrile 500 mL/methanol 500 ml/KH2PO4 6.1 g/H3PO4 2.5 g • Flow rate: 1 mL/minute • Detection: 254 nm • Column temperature: 30° C.

[4] = tested on: TAT; test: Specificity 3 to amino group donor with 1-benzyl-3-pyrrolidinone as receptor; assay type: biochemical, Arthrobacter sp. KNK04-25; details: amino group donor 290 mM, 1-benzyl-3-pyrrolidinone 29 mM; for Relative activity: pH 7.0, 30° C., 90 minutes, L-alanine = 100
Experimental: With the use of the cell-free extracts obtained in Example 5, the substrate specificity of TAT to an amino group donor was examined. Each reagent was added to enzyme solutions (200 μL each) so that the final concentrations were as specified in the following composition of the substrate solution. The volume of each reaction solution was adjusted to 400 μl with 0.1 M potassium phosphate buffer (pH 7.0). After 90 minutes of reaction at 30° C., 15 μL of 6N hydrochloric acid was added to stop the reaction. The thus obtained reaction solutions were analyzed by high performance liquid chromatography under the following conditions.
as §2
(§3) [High Performance Liquid Chromatography Quantitative Analysis Conditions] <Quantitative Analysis> • Column: Finepak SIL C18-T (JASCO Corporation) • Eluent: distilled water 945 mL/acetonitrile 555 mL/KH2PO4 7.5 g/SDS 2.16 g (adjusted with H3PO4 to pH 3.6) • Flow rate: 1 mL/minute • Detection: 254 nm • Column temperature: 40° C. <Analysis of Optical Purity>
Each reaction solution was treated with an appropriate amount of sodium carbonate so that it became basic, derivatized with dinitrobenzoyl chloride, and then analyzed under the following conditions. • Column: Chiralcel IA (Daicel Corporation) • Eluent: hexane/ethanol/diethylamine/acetonitrile=800/200/1/5 (volume ratio) • Flow rate: 0.8 mL/minute • Detection: 254 nm • Column temperature: 30° C.

[5] = Activity for 1-benzyl-3-pyrrolidinone and optical purity of generated (S)-1-benzyl-3-aminopyrrolidine; assay type: biochemical; details: 57 mM 1-benzyl-3-pyrrolidinone, 57 mM (S)-1-phenethylamine, pH 7.0, 30° C., 2 hours, cell-free extract
Experimental: (Method for Determination of Activity for 1-benzyl-3-pyrrolidinone and Method for Measurement of Optical Purity of Generated (S)-1-benzyl-3-aminopyrrolidine)
Activity to catalyze transamination by acting on optically active (S)-1-phenethylamine and 1-benzyl-3-pyrrolidinone, so as to generate acetophenone and (S)-1-benzyl-3-aminopyrrolidine was examined. Each reagent was added to each cell-free extract obtained in Example 5 so that the final concentrations were as specified in the following composition of the substrate solution. After 2 hours of reaction at 30° C., the reaction solution was analyzed by HPLC under the following conditions.
as §2
as §3, with “Chromatography” for “Chromatography Quantitative”, “Purity> […]” for “Purity>”

[6] = amino group receptor 14 mM, (S)-1-phenethylamine 14 mM, pH 7.0, 30° C., 60 minutes, 2-ketoglutaric acid = 100

Molecule: CCCC=O [Butylaldehyde]
- Relative activity [1, 6]: 6%

Molecule: NCCC(=O)O [β-alanine]
- activity of the polypeptide for amino group donor (in words) [2]: did not exhibit activity
- Relative activity [2]: 0%

Molecule: CC(=O)C(=O)O [Pyruvic acid]
- activity of the polypeptide for amino group receptor (in words) [1]: exhibited activity
- Relative activity ([1]; […], 2-ketoglutaric acid = 100): 10%

Molecule: O=C(O)C(=O)Cc1ccccc1 [Phenylpyruvic acid]
- Relative activity ([1]; […], 2-ketoglutaric acid = 100): 8%

Molecule: O=C1CCN(Cc2ccccc2)C1 [1-benzyl-3-pyrrolidinone]
- Relative activity ([1]; […], 2-ketoglutaric acid = 100): 20%

Molecule: CCCC(C)=O [2-pentanone]
- Relative activity ([1]; […], 2-ketoglutaric acid = 100): 1%

Molecule: O=C1CCc2ccccc2C1 [2-tetralone]
- Relative activity ([1]; […], 2-ketoglutaric acid = 100): 1%

Molecule: CCCCN [n-butylamine]
- activity of TAT for amino group donor (in words) [3]: exhibited activity
- Relative activity [3]: 4%

Molecule: NCCCCN [Putrescine·2HCl]
- activity of the polypeptide for amino group donor (in words) [2]: did not exhibit activity
- Relative activity [2]: 0%

Molecule: CCC(C)N (racemic) [±2-butylamine]
- activity of TAT for amino group donor (in words) [3]: exhibited activity
- Relative activity [3]: 7%

Molecule: O=C1CN2CCC1CC2 [Quinuclidinone]
- Relative activity ([1]; pH 7): 0%

Molecule: C[C@H](N)c1ccccc1 [(S)-α-phenethylamine]
- Relative activity [2]: 100%

Molecule: NCCCC(=O)O [4-aminobutyric acid]
- activity of the polypeptide for amino group donor (in words) [2]: did not exhibit activity
- Relative activity [2]: 0%

Molecule: O=C(O)CC(=O)C(=O)O [Oxalacetic acid]
- Relative activity ([1]; […], 2-ketoglutaric acid = 100): 4%

Molecule: CC(=O)CCO [4-hydroxy butane-2-one]
- Relative activity ([1]; […], 2-ketoglutaric acid = 100): 0%

Molecule: O=C(Cc1ccccc1)c1ccccc1 [Benzyl phenyl ketone]
- Relative activity [1, 6]: 0%

Molecule: NCc1ccccc1 [Benzylamine]
- activity of TAT for amino group donor (in words) [3]: exhibited activity
- Relative activity [3]: 100%

Molecule: Cl.NCCC(N)C(=O)O (racemic) [±2,4-diaminobutyric acid·HCl]
- activity of the polypeptide for amino group donor (in words) [2]: did not exhibit activity
- Relative activity [2]: 0%

Molecule: CCCCCC(C)=O [2-heptanone]
- Relative activity ([1]; […], 2-ketoglutaric acid = 100): 3%

Molecule: CCC(C)=O [2-butanone]
- Relative activity ([1]; […], 2-ketoglutaric acid = 100): 0%

Molecule: CCCCC(=O)CC [3-heptanone]
- Relative activity ([1]; […], 2-ketoglutaric acid = 100): 5%

Molecule: CCCC(=O)CC(=O)OC [Methyl 3-oxohexanoate]
- Relative activity ([1]; […], 2-ketoglutaric acid = 100): 4%

Molecule: CCC(=O)CC#N [3-oxopentanenitrile]
- Relative activity ([1]; […], 2-ketoglutaric acid = 100): 0%

Molecule: O=Cc1ccccc1 [Benzaldehyde]
- Relative activity ([1]; […], 2-ketoglutaric acid = 100): 70%

Molecule: C[C@H](N)C(=O)O [L-alanine]
- Relative activity [4]: 100%

Molecule: CCOC(=O)CC(C)=O [Ethyl acetoacetate]
- Relative activity ([1]; […], 2-ketoglutaric acid = 100): 2%

Molecule: NCCCCC(=O)O [5-aminovaleric acid]
- activity of the polypeptide for amino group donor (in words) [2]: did not exhibit activity
- Relative activity [2]: 0%

Molecule: CC(C)=O [Acetone]
- Relative activity ([1]; […], 2-ketoglutaric acid = 100): 0%

Molecule: N#CCC(=O)c1ccccc1 [α-cyanoacetophenone]
- Relative activity ([1]; […], 2-ketoglutaric acid = 100): 0%

Molecule: CC(=O)c1ccccn1 [2-acetylpyridine]
- Relative activity ([1]; […], 2-ketoglutaric acid = 100): 60%

Molecule: NCCCCCC(=O)O [6-aminocaproic acid]
- activity of the polypeptide for amino group donor (in words) [2]: did not exhibit activity
- Relative activity [2]: 0%

Molecule: Cl.NCCCC[C@H](N)C(=O)O [L-lysine·HCl]
- activity of the polypeptide for amino group donor (in words) [2]: did not exhibit activity
- Relative activity [2]: 0%

Molecule: CCC(=O)C(=O)O [2-ketobutyric acid]
- Relative activity ([1]; […], 2-ketoglutaric acid = 100): 5%

Molecule: CCC(=O)CC(=O)OC [Methyl 3-oxovalerate]
- Relative activity ([1]; […], 2-ketoglutaric acid = 100): 4%

Molecule: N[C@@H](CCC(=O)O)C(=O)O [L-glutamic acid]
- activity of TAT for amino group donor compared with L-alanine (in words) [4]: higher activity
- Relative activity [4]: 1650%

Molecule: CCC(=O)CC [3-pentanone]
- Relative activity ([1]; […], 2-ketoglutaric acid = 100): 1%

Molecule: O=C1CCCc2ccccc21 [1-tetralone]
- Relative activity ([1]; […], 2-ketoglutaric acid = 100): 1%

Molecule: CCCCC(C)=O [2-hexanone]
- Relative activity ([1]; […], 2-ketoglutaric acid = 100): 4%

Molecule: CCCC(=O)C(=O)O [2-keto-n-valeric acid]
- Relative activity [1, 6]: 3%

Molecule: O=CC(=O)O [Glyoxalic acid]
- activity of the polypeptide for amino group receptor (in words) [1]: exhibited activity
- Relative activity ([1]; […], 2-ketoglutaric acid = 100): 40%

Molecule: COc1ccc2c(c1)CC(=O)CC2 [7-methoxy-2-tetralone]
- Relative activity ([1]; […], 2-ketoglutaric acid = 100): 0%

Molecule: O=C(O)CCC(=O)C(=O)O [2-ketoglutaric acid]
- activity of the polypeptide for amino group receptor (in words) ([1]; amino group receptor 14 mM, (S)-1-phenethylamine 14 mM): high activity
- Relative activity [1, 6]: 100%

B1: TAT: polypeptide having transamination activity from Arthrobacter sp. KNK04-25; amino acid sequence SEQ ID NO: 1 (protein, listed as Arthrobacter sp.)
chain: MSAITLESSLATFTRRFDVSAKLTELGKEVVPGGYSRNSFNFGPHAIYVESGDGAYISTVEGHRLLDLNNNFTVNVLGHNHPSVQRTLRGSIETGVSFGNPVALETELAQLLVERIPSIERVQFSCSASESCMSAVRVARAFTGRTKIAKFEGGYHGFTDPLQVSWHPDHDGDCGPDDAPKAIPDSGGIPAEDVANVVVLTQNDGEGTERILRAHASEIACVIVELESASGGLVTLEQDYVESLRELTSELGIVLIFDETVTLRAGYQGMQGDYGVAPDLTVMGKIIGGGFPLGAVGGSAEIMSVLESGLVSISGTHHGHKIALAAGISTMRELTQGAFDRLNGMATRVMEELNDWSSQRGSSFAVYGKGISHLAYGFMREPGLSIRTHRDYWRNFDGTGTQICSLELANRGFFPVARGDFSLSLPMSDDDITAFVETTKEIVTGIES
- conversion rate to (S)-1-benzyl-3-aminopyrrolidine [5]: 100%
- optical purity of generated (S)-1-benzyl-3-aminopyrrolidine [5]: 100 % e.e.
